Test system: Human umbilical vein endothelial cells (HUVECs)
Experiment: eNOS activity analysis: NO, ONOO− and NO/ONOO− release from HUVECs of 50 genotyped donors in response to LA-419 (Example 2)
Assay type: cell-based
Conditions: LA-419 5 μM
Procedure: Concurrent measurements of NO and ONOO^− were carried out with tandem electrochemical nanosensors combined into one working unit with a total diameter of 200-500 nm (FIG. 1). Their design was based on previously developed and well-characterized chemically modified carbon-fiber technology (Malinski and Taha, 1992; Lvovich and Scheeline, 1997). Each of the nanosensors was made by depositing a sensing material on the tip of a carbon fiber (length 4-5 μm, diameter 0.2-0.5 μm). The fibers were sealed with nonconductive epoxy and electrically connected to copper wires with conductive silver epoxy. A conductive film of polymeric nickel (II) tetrakis(3-methoxy-4-hydroxyphenyl)porphyrin for the NO-sensor and polymeric film of Mn (III) [2.2]paracyclophanylporphyrin was used for the ONOO^−-sensor.
A module of NO/ONOO^− nanosensors (diameter 1-2 μm) with a platinum wire (0.1 mm) counter electrode and saturated calomel reference electrode (SCE) were applied. Differential pulse voltammetry (DPV) and amperometry were performed with a computer-based Gamry VFP600 multichannel potentiostat. DPV was used to measure the basal NO and ONOO^− concentrations, and amperometry was used to measure changes in NO and ONOO^− concentrations from its basal level with time. The DPV current at the peak potential characteristic for NO oxidation (0.65 V) and ONOO^− reduction (−0.45 V) was directly proportional to the local concentrations of these compounds in the immediate vicinity of the sensor. Linear calibration curves (current vs. concentration) were constructed for each sensor from 10 nM to 3 μM before and after measurements with aliquots of NO and ONOO^− standard solutions, respectively. The detection limit of the sensors was 1.0 nM.
The quantification of each analyte (concentration in nM) was performed using a maximum current from amperograms and standard calibration curves. A reproducibility of measurements with nanosensors is relatively high (between 5-12%). […] The sensors were slowly raised 5±2 μm from the surface of a single endothelial cell. The eNOS agonist, calcium ionophore A23187 (CaI) as well as the different drugs were then added to the surrounding media at the cell surface with a nanoinjector that was also positioned by a computer controlled-micromanipulator.
This example describes the genotype-specific response of the three major eNOS variants to 1 μM and 5 μM concentrations of LA-419. The three major genetic polymorphisms studied were the Glu298Asp variant (E298D or 894G→T) in exon 7 of […], the −786T→C variant in the promoter region, and the intron 4 polymorphism (VNTR). All of these variants have possible effects on the cardiovascular system and endothelial dysfunction. For this study, human umbilical vein endothelial cells (HUVECs) from 50 donors between 18 and 32 years of age were used.
For the analysis several analysis techniques were employed. First, the effect of genotype on NO and ONOO^− release was explored within the different concentrations of LA-419 (control, 1 μM, 5 μM), calculated as the average peak release (nmols/L) of NO, ONOO^−, and NO/ONOO^−. The effect of genotype on the net increase in NO, ONOO^−, and NO/ONOO^− for LA-419 (1 μM and 5 μM) as compared to control was also measured. In addition, an analysis was done on the effect of genotype on the % change in NO, ONOO^−, and NO/ONOO^− production for LA-419 (1 μM and 5 μM), calculated as:
% Change=[(avg. LA-419−avg. control)/(avg. control)]*100
Finally, an evaluation was undertaken concerning the effect of genotype on the production of NO, ONOO^−, and NO/ONOO^− as the fold difference of control for LA-419 (1 μM and 5 μM), calculated as:
Fold Difference=(avg. LA-419)/(avg. control)
Within each calculation technique the results were compared for statistical significance using a non-parametric ANOVA Kruskal-Wallace test or a non-parametric Mann-Whitney U test. Statistical significance was set at a p-value <0.05 in a two-tailed distribution. […]

[1] = HUVECs Intron 4 variant b/a, a/a, c/c
[2] = HUVECs T-786C variant T/C & C/C

In the case of `CC(=O)SC1COC2C(O[N+](=O)[O-])COC12` (stereo not drawn) [LA-419, S-(6-Nitro-oxi-hexahydro-furo[3,2-b]furan-3-1-il)thioacetate], the “Peak release ONOO− (mean ± sd)” value (HUVECs G894T variant G/G) is reported as 288.82 (78.22) nmols/L, the “% Change Ratio, % Change NO/% Change ONOO− (mean ± sd)” value (HUVECs G894T variant G/T) is reported as −0.88 (0.60) and the “Net increase over control NO (mean ± sd)” value (HUVECs G894T variant G/T) is reported as 45.87 (19.24) nmols/L. The “Net increase over control NO/ONOO− (mean ± sd)” value (HUVECs G894T variant G/T) was −0.94 (0.88), the “Net increase over control ONOO− (mean ± sd)” value (HUVECs G894T variant G/T) was −65.80 (26.77) nmols/L and the “Peak release NO (mean ± sd)” value (HUVECs G894T variant G/T) was 400.63 (80.27) nmols/L. For the same molecule, the “Peak release NO/ONOO− (mean ± sd)” value (HUVECs G894T variant G/T) was 1.44 (0.49), the “Peak release ONOO− (mean ± sd)” value (HUVECs G894T variant G/T) was 300.15 (75.86) nmols/L and the “Net increase over control NO (mean ± sd)” value (HUVECs G894T variant G/T & T/T) was 45.12 (21.46) nmols/L. For the same molecule, the “Net increase over control NO/ONOO− (mean ± sd)” value (HUVECs G894T variant G/T & T/T) was −0.91 (0.90), the “Net increase over control ONOO− (mean ± sd)” value (HUVECs G894T variant G/T & T/T) was −69.51 (27.46) nmols/L and the “Peak release NO (mean ± sd)” value (HUVECs G894T variant G/T & T/T) was 398.42 (88.37) nmols/L. For the same molecule, the “Peak release NO/ONOO− (mean ± sd)” value (HUVECs G894T variant G/T & T/T) was 1.39 (0.53), the “Peak release ONOO− (mean ± sd)” value (HUVECs G894T variant G/T & T/T) was 314.55 (84.72) nmols/L and the “% Change Ratio, % Change NO/% Change ONOO− (mean ± sd)” value (HUVECs G894T variant T/T) was −0.80 (0.73). The “Net increase over control NO (mean ± sd)” value (HUVECs G894T variant T/T) was 42.40 (30.77) nmols/L, the “Net increase over control NO/ONOO− (mean ± sd)” value (HUVECs G894T variant T/T) was −0.78 (1.05) and the “Net increase over control ONOO− (mean ± sd)” value (HUVECs G894T variant T/T) was −82.87 (28.56) nmols/L. For the same molecule, the “Peak release NO (mean ± sd)” value (HUVECs G894T variant T/T) was 390.47 (124.39) nmols/L, the “Peak release NO/ONOO− (mean ± sd)” value (HUVECs G894T variant T/T) was 1.21 (0.68) and the “Peak release ONOO− (mean ± sd)” value (HUVECs G894T variant T/T) was 366.40 (103.55) nmols/L. For the same molecule, the “Net increase over control NO (mean ± sd)” value (HUVECs Intron 4 variant a/a) was 52.00 (16.74) nmols/L, the “Net increase over control NO/ONOO− (mean ± sd)” value (HUVECs Intron 4 variant a/a) was 0.41 (0.19) and the “Net increase over control ONOO− (mean ± sd)” value (HUVECs Intron 4 variant a/a) was −63.78 (14.11) nmols/L. The “Peak release NO (mean ± sd)” value (HUVECs Intron 4 variant a/a) was 438.33 (79.68) nmols/L, the “Peak release NO/ONOO− (mean ± sd)” value (HUVECs Intron 4 variant a/a) was 1.48 (0.64) and the “Peak release ONOO− (mean ± sd)” value (HUVECs Intron 4 variant a/a) was 331.22 (117.30) nmols/L. For the same molecule, the “Net increase over control NO (mean ± sd)” value (HUVECs Intron 4 variant b/a) was 54.53 (23.50) nmols/L, the “Net increase over control NO/ONOO− (mean ± sd)” value (HUVECs Intron 4 variant b/a) was 0.45 (0.22) and the “Net increase over control ONOO− (mean ± sd)” value (HUVECs Intron 4 variant b/a) was −72.30 (25.81) nmols/L. The “Peak release NO (mean ± sd)” value (HUVECs Intron 4 variant b/a) was 375.20 (81.45) nmols/L, the “Peak release NO/ONOO− (mean ± sd)” value (HUVECs Intron 4 variant b/a) was 1.42 (0.61) and the “Peak release ONOO− (mean ± sd)” value (HUVECs Intron 4 variant b/a) was 295.73 (85.11) nmols/L. The “Net increase over control NO (mean ± sd)” value [1] was 47.30 (22.42) nmols/L, the “Net increase over control NO/ONOO− (mean ± sd)” value [1] was 0.44 (0.20) and the “Net increase over control ONOO− (mean ± sd)” value [1] was −72.31 (23.65) nmols/L. The “Peak release NO (mean ± sd)” value [1] was 392.83 (80.05) nmols/L, the “Peak release NO/ONOO− (mean ± sd)” value [1] was 1.43 (0.57) and the “Peak release ONOO− (mean ± sd)” value [1] was 305.67 (86.01) nmols/L. For the same molecule, the “Net increase over control NO (mean ± sd)” value (HUVECs Intron 4 variant b/b) was 47.30 (22.42) nmols/L, the “Net increase over control NO/ONOO− (mean ± sd)” value (HUVECs Intron 4 variant b/b) was 0.43 (0.20) and the “Net increase over control ONOO− (mean ± sd)” value (HUVECs Intron 4 variant b/b) was −70.32 (30.56) nmols/L. For the same molecule, the “Peak release NO (mean ± sd)” value (HUVECs Intron 4 variant b/b) was 400.83 (81.57) nmols/L, the “Peak release NO/ONOO− (mean ± sd)” value (HUVECs Intron 4 variant b/b) was 1.46 (0.51) and the “Peak release ONOO− (mean ± sd)” value (HUVECs Intron 4 variant b/b) was 298.99 (79.66) nmols/L. For the same molecule, the “Net increase over control NO (mean ± sd)” value (HUVECs Intron 4 variant c/c) was 64.00 (0) nmols/L, the “Net increase over control NO/ONOO− (mean ± sd)” value (HUVECs Intron 4 variant c/c) was 0.46 (0) and the “Net increase over control ONOO− (mean ± sd)” value (HUVECs Intron 4 variant c/c) was −98.00 (0) nmols/L. For the same molecule, the “Peak release NO (mean ± sd)” value (HUVECs Intron 4 variant c/c) was 432.67 (0) nmols/L, the “Peak release NO/ONOO− (mean ± sd)” value (HUVECs Intron 4 variant c/c) was 1.32 (0) and the “Peak release ONOO− (mean ± sd)” value (HUVECs Intron 4 variant c/c) was 328.33 (0) nmols/L. The “% Change Ratio, % Change NO/% Change ONOO− (mean ± sd)” value (HUVECs T-786C variant C/C) was −0.62 (0.39), the “Net increase over control NO (mean ± sd)” value (HUVECs T-786C variant C/C) was 38.00 (17.39) nmols/L and the “Net increase over control NO/ONOO− (mean ± sd)” value (HUVECs T-786C variant C/C) was −0.52 (0.36). For the same molecule, the “Net increase over control ONOO− (mean ± sd)” value (HUVECs T-786C variant C/C) was −82.58 (26.16) nmols/L, the “Peak release NO (mean ± sd)” value (HUVECs T-786C variant C/C) was 370.17 (86.78) nmols/L and the “Peak release NO/ONOO− (mean ± sd)” value (HUVECs T-786C variant C/C) was 1.32 (0.71). For the same molecule, the “Peak release ONOO− (mean ± sd)” value (HUVECs T-786C variant C/C) was 322.33 (110.70) nmols/L, the “% Change Ratio, % Change NO/% Change ONOO− (mean ± sd)” value (HUVECs T-786C variant T/C) was −0.81 (0.56) and the “Net increase over control NO (mean ± sd)” value (HUVECs T-786C variant T/C) was 47.26 (23.70) nmols/L. For the same molecule, the “Net increase over control NO/ONOO− (mean ± sd)” value (HUVECs T-786C variant T/C) was −0.86 (0.80), the “Net increase over control ONOO− (mean ± sd)” value (HUVECs T-786C variant T/C) was −65.86 (23.41) nmols/L and the “Peak release NO (mean ± sd)” value (HUVECs T-786C variant T/C) was 396.81 (95.72) nmols/L. For the same molecule, the “Peak release NO/ONOO− (mean ± sd)” value (HUVECs T-786C variant T/C) was 1.41 (0.56), the “Peak release ONOO− (mean ± sd)” value (HUVECs T-786C variant T/C) was 310.97 (82.59) nmols/L and the “Net increase over control NO (mean ± sd)” value [2] was 45.89 (22.83) nmols/L. For the same molecule, the “Net increase over control NO/ONOO− (mean ± sd)” value [2] was −0.81 (0.76), the “Net increase over control ONOO− (mean ± sd)” value [2] was −68.33 (24.07) nmols/L and the “Peak release NO (mean ± sd)” value [2] was 392.86 (93.35) nmols/L. The “Peak release NO/ONOO− (mean ± sd)” value [2] was 1.39 (0.57), the “Peak release ONOO− (mean ± sd)” value [2] was 312.65 (84.87) nmols/L and the “% Change Ratio, % Change NO/% Change ONOO− (mean ± sd)” value (HUVECs T-786C variant T/T) was −0.90 (0.47). For the same molecule, the “Net increase over control NO (mean ± sd)” value (HUVECs T-786C variant T/T) was 55.91 (19.06) nmols/L, the “Net increase over control NO/ONOO− (mean ± sd)” value (HUVECs T-786C variant T/T) was −0.95 (0.67) and the “Net increase over control ONOO− (mean ± sd)” value (HUVECs T-786C variant T/T) was −76.48 (33.23) nmols/L. For the same molecule, the “Peak release NO (mean ± sd)” value (HUVECs T-786C variant T/T) was 405.83 (58.51) nmols/L, the “Peak release NO/ONOO− (mean ± sd)” value (HUVECs T-786C variant T/T) was 1.52 (0.45) and the “Peak release ONOO− (mean ± sd)” value (HUVECs T-786C variant T/T) was 286.47 (76.65) nmols/L. The “% increase in peak NO generation, range within genotype groups” value (Table u1) was 11.6 to 17.4%, the “increase in NO/OONO− ratio, range over all genotypes” value (Table u3) was 37-53% and the “peak release of NO versus control” value (all genotypes (Table b1)) was “increase”. For the same molecule, the “greater net increase in NO, major allele variant vs minor allele carriers” value (exon 7, p 0.10) was 22% and the “greater net increase in NO, major allele variant vs minor allele carriers” value (promoter, p 0.12) was 22%.

— patent US20130131161A1, “METHODS AND COMPOSITIONS FOR CARDIOVASCULAR DISEASES AND CONDITIONS” (priority 2009, published 2013)
